Values joined by “and” are separate entries in the source; they are usually repeats but may differ in a detail not shown here. Equal values may be shown once.
System: 857933-349-R-J2-PDC complex spheroid viability
Assay: Anticancer human tumor 857933-349-R-J2-PDC patient-derived colon adenocarcinoma cell line growth inhibition [POLQ]
Conditions: for viability, T/C: stronger effect = lower value
Experimental: Multicellular complex tumor spheroid response to Polymerase (POL) inhibitors (novobiocin, ART-558, RP6685) in combination with a variety of drugs and investigational agents in selected tumor cell lines
The POL inhibitors (novobiocin, ART-558, and RP6685) were evaluated both individually and in combination with standard of care and investigational anticancer small molecules within a complex spheroid model of solid tumors. . Complex spheroids include a stromal component modeled by human endothelial cells (HUVEC) and fibroblasts modeled by human mesenchymal stem cells (MSCs). The concentration ranges selected for each drug and investigational agent were based upon clinically achievable concentrations if the clinical Cmax of the agent was known.
Compounds. The drugs and investigational agents: novobiocin (NSC847541), ART-558 (NSC835418), RP-6685 (NSC848927), peposertib (NSC802822), ceralasertib (NSC780249), elimusertib (NSC800525), camonsertib (NSC841442), AZD-1390 (NSC803789), olaparib (NSC753686), talazoparib (NSC767125), rucaparib (NSC756644), sotorasib (NSC818433), MRTX-1133 (NSC836407), SN-38 (NSC673596), topotecan (NSC609699), epotoside (NSC141540), doxorubicin (NSC123127), gemcitabine (NSC613327), 5-fluorouracil (NSC19893), paclitaxel (NSC125973), vemurafenib (NSC761431), MSA-2 (NSC828583), SN-011 (NSC837082), adavosertib (NSC754352), prexasertib (NSC758257), carboplatin (NSC241240) and oxaliplatin (NSC266046), were obtained from the National Cancer Institute (NCI) Developmental Therapeutics Program Chemical Repository (21). The FDA-approved anticancer drug set is available from the Developmental Therapeutics Program at https://dtp.cancer.gov/organization/dscb/obtaining/. […] The stock solutions were prepared in dimethyl sulfoxide (DMSO, Sigma-Aldrich, St. Louis, MO, cat. D2650), except for the platinum compounds which were prepared in saline (Quality Biological, Gaithersburg, MD, cat. 114-055-101), at 800-fold the tested concentration and stored at -70 degrees C prior to their use. All drugs and investigational agents were tested over a range starting from a high concentration at or near the clinical Cmax and decreasing in half-log increments. If the clinical Cmax for an agent had not been determined, the highest concentration tested was 10 microM, except for SN-38, which was tested at a high concentration of 1 microM.
Cell Culture. All cells were maintained in an incubator at 37 degrees C and 5% CO2 with 95% humidity. The PDC lines were cultured according to standard operating procedures established by the NCI PDMR (https://pdmr.cancer.gov). Table 3 of the manuscript, lists the cell lines along with the number of the three cell types plated to form the mct-spheroids and media for tumor cell growth. After thawing, all PDC lines, except 997537-175-T-J1-PDC and 415267-285-R-J2-PDC, were cultured in Matrigel-coated flasks prepared with a working solution of 1X Ham's F-12 nutrient mix, without supplementation (Thermo Fisher Scientific, cat. 11765054), 100 U/mL penicillin-streptomycin (Thermo Fisher Scientific, cat. 15140122), and 2.5% Matrigel (Corning Inc., Corning, NY, cat. 354248) for the first three passages. The two PDC lines 997537-175-T-J1-PDC and 415267-285-R-J2-PDC were cultured on uncoated flasks. The 857933-349-R-J2-PDC line was cultured in 6C/Colon 1B media containing advanced DMEM/F-12 (Thermo Fisher Scientific, cat. 12634028), 10 mM HEPES (Thermo Fisher Scientific, cat. 15630080), 1X GlutaMAX supplement (Thermo Fisher Scientific, cat. 35050061), 0.1 mg/mL primocin (InvivoGen, San Diego, CA, cat. ant-pm-2), 10% defined fetal bovine serum, heat inactivated (HyClone Laboratories Inc., Logan, UT, cat. SH30070.03HI), 50% L-WRN conditioned media (ATCC, cat. CRL-3276), 1.25 mM N-Acetyl-L-cysteine (Sigma-Aldrich, cat. A9165), 10 mM nicotinamide (Sigma-Aldrich, cat. N0636), 1X B-27 supplement (Thermo Fisher Scientific, cat. 17504044), 1X N-2 supplement (Thermo Fisher Scientific, cat. […]
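Further: spheroids exposed to compounds for seven days before readout.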

## CCc1cc2c(N3CCc4c(cc(Cn5ccnc5)cc4-c4cn(C)nc4C(F)(F)F)C3=O)ccnc2c(OC)n1
Compound 0.0316 µM
  viability, T/C: 78.8% and 89.8% and 94.1%
Compound 0.1 µM
  viability, T/C: 83.8% and 87.8% and 80.9%
Compound 0.316 µM
  viability, T/C: 73.6% and 90% and 98.3%
Compound 1 µM
  viability, T/C: 73.4% and 84.9% and 82.2%
Compound 3.16 µM
  viability, T/C: 62.2% and 72.7% and 78%
Compound 10 µM
  viability, T/C: 58.9% and 65.9% and 59%
Curve of compound
  IC50: > 10000 nM

## COc1cccc2c1C(=O)c1c(O)c3c(c(O)c1C2=O)CC(O)(C(=O)CO)CC3OC1CC(N)C(O)C(C)O1 (stereo unspecified)
Compound 0.0316 µM
  viability, T/C: 74.8% and 79.1% and 66.5%
Compound 0.1 µM
  viability, T/C: 76.8% and 69% and 68.7%
Compound 0.316 µM
  viability, T/C: 43.7% and 46.9% and 49.5%
Compound 1 µM
  viability, T/C: 10.4% and 8.69% and 8.8%
Compound 3.16 µM
  viability, T/C: 0.42% and 0.45% and 0.4%
Compound 10 µM
  viability, T/C: 0.55% and 0.34% and 0.38%
Curve of compound
  IC50: 259 nM and 312 nM

## CC(=O)O[C@H]1C(=O)[C@@]2(C)[C@H]([C@H](OC(=O)c3ccccc3)[C@]3(O)C[C@H](OC(=O)[C@H](O)[C@@H](NC(=O)c4ccccc4)c4ccccc4)C(C)=C1C3(C)C)[C@]1(OC(C)=O)CO[C@@H]1C[C@@H]2O + Cc1cccc(N(C)C(=O)C2C(O)CCN2c2nc(C)cc(C(F)(F)F)c2C#N)c1
Curve of first compound, second compound 0.0316 µM
  IC50: < 9.49 nM
Curve of first compound, second compound 0.1 µM
  IC50: < 9.49 nM
Curve of first compound, second compound 0.316 µM
  IC50: < 9.49 nM
Curve of first compound, second compound 1 µM
  IC50: < 9.49 nM
Curve of first compound, second compound 3.16 µM
  IC50: 10.7 nM
Curve of first compound, second compound 10 µM
  IC50: < 9.49 nM
Second compound 0.0316 µM, first compound 0.00949 µM
  viability, T/C: 45.4%
Second compound 0.0316 µM, first compound 0.03 µM
  viability, T/C: 21.2%
Second compound 0.0316 µM, first compound 0.0949 µM
  viability, T/C: 10.7%
Second compound 0.0316 µM, first compound 0.3 µM
  viability, T/C: 11.8%
Second compound 0.0316 µM, first compound 0.949 µM
  viability, T/C: 9.59%
Second compound 0.0316 µM, first compound 3 µM
  viability, T/C: 14.6%
Second compound 0.1 µM, first compound 0.00949 µM
  viability, T/C: 40.1%
Second compound 0.1 µM, first compound 0.03 µM
  viability, T/C: 16.9%
Second compound 0.1 µM, first compound 0.0949 µM
  viability, T/C: 12.6%
Second compound 0.1 µM, first compound 0.3 µM
  viability, T/C: 10.6%
Second compound 0.1 µM, first compound 0.949 µM
  viability, T/C: 14.4%
Second compound 0.1 µM, first compound 3 µM
  viability, T/C: 13.8%
Second compound 0.316 µM, first compound 0.00949 µM
  viability, T/C: 40%
Second compound 0.316 µM, first compound 0.03 µM
  viability, T/C: 19.5%
Second compound 0.316 µM, first compound 0.0949 µM
  viability, T/C: 10.1%
Second compound 0.316 µM, first compound 0.3 µM
  viability, T/C: 12%
Second compound 0.316 µM, first compound 0.949 µM
  viability, T/C: 12.3%
Second compound 0.316 µM, first compound 3 µM
  viability, T/C: 12.4%
Second compound 1 µM, first compound 0.00949 µM
  viability, T/C: 47.7%
Second compound 1 µM, first compound 0.03 µM
  viability, T/C: 20%
Second compound 1 µM, first compound 0.0949 µM
  viability, T/C: 12.6%
Second compound 1 µM, first compound 0.3 µM
  viability, T/C: 10.4%
Second compound 1 µM, first compound 0.949 µM
  viability, T/C: 10.9%
Second compound 1 µM, first compound 3 µM
  viability, T/C: 13.4%
Second compound 3.16 µM, first compound 0.00949 µM
  viability, T/C: 54%
Second compound 3.16 µM, first compound 0.03 µM
  viability, T/C: 15.1%
Second compound 3.16 µM, first compound 0.0949 µM
  viability, T/C: 10.4%
Second compound 3.16 µM, first compound 0.3 µM
  viability, T/C: 12.1%
Second compound 3.16 µM, first compound 0.949 µM
  viability, T/C: 12.1%
Second compound 3.16 µM, first compound 3 µM
  viability, T/C: 13.5%
Second compound 10 µM, first compound 0.00949 µM
  viability, T/C: 35.4%
Second compound 10 µM, first compound 0.03 µM
  viability, T/C: 14.5%
Second compound 10 µM, first compound 0.0949 µM
  viability, T/C: 13.6%
Second compound 10 µM, first compound 0.3 µM
  viability, T/C: 11.8%
Second compound 10 µM, first compound 0.949 µM
  viability, T/C: 13.3%
Second compound 10 µM, first compound 3 µM
  viability, T/C: 15.4%
